Test results: patent publication EP0336958B1, “PRODUCT CONTAINING AS ACTIVE PRINCIPLES: A) A PEPTIDE HAVING AN ACTIVITY OF THE TYPE OF THAT OF HUMAN GAMMA INTERFERON, B) HYDROXYUREA” (priority 1987, dated 1989)

System: cellules HL-60
Conditions: hydroxyurée alone, 150 uM

For `NC(=O)NO` [hydroxyurée], the “inhibition de la croissance des cellules HL-60” value was “inhibition suffisante de la croissance des cellules HL-60”.
